Values joined by “and” are separate entries in the source; they are usually repeats but may differ in a detail not shown here. Identical values can stand only once. “Also recorded” adds a separate entry of the source.

The target in one assay is T1, CGRP receptor (Homo sapiens, UniProt O60894+Q16602).
T1 construct: host or cells: naturally occurring cells, recombinant CGRP receptor expressing cell lines, isolated artery segments (none specified)
The following applies: literature (Sheykhzade 2018; Nilsson 2016); cited from earlier work.

The subject of assay [1] is coronary (left anterior descending artery, LAD) artery segments. Kind of assay: Vasodilation of isolated precontracted artery segments (wire myograph), coronary artery. Type of assay: cell-based, rat. On the procedure: (§1) Basilar, mesenteric and coronary arteries were isolated immediately and ring artery segments were stored in ice cold PSS buffer before being mounted on 40 μm stainless steel wires in a Multi Wire Myograph System organ bath (model 610M, Danish Myo Technology A/S, Denmark). Each segment was immersed in 37° C. PSS solution, continuously aerated with 5% CO2/95% O2 to maintain pH 7.4. […] One wire was connected to a micrometer screw enabling adjustments of the distance between the wires. The other wire was connected to a force displacement transducer attached to an analogue-digital converter unit (ADInstruments, Chalgrove, UK).
(§2) Measurements of vascular tone were recorded using the data acquisition hardware Power Lab unit (ADInstruments). To ensure optimal conditions for maximal force development, each artery segment was carefully stretched to 90% of the internal circumference that the vessel would have under the passive transmural pressure of 100 mm Hg. Following an equilibration period of approximately 20 min, each segment was exposed twice to KPSS to confirm smooth muscle cell viability and the reproducibility of depolarization-induced contractions.
After 15 min equilibration, a stable precontraction tone (50-80% of the KPSS-induced steady state contraction) was induced in arterial segments by PGF2α (3-10 μM). […]
Vasodilation is expressed as percentage of the remaining precontraction tone induced by PGF2α. […] Active tension was determined by subtracting the passive tension (resting tension in PSS) from the total tension (during KPSS or PGF2α challenge).
(§3) All pharmacological data were analysed using Prism 7.02 (GraphPad Software Inc., San Diego, CA) and given as mean±S.E.M. For all analyses, the data were unweighted and each y value (mean of replicates for each individual experiment) was considered an individual point.
(§4) Differences in pEC50 and Emax values were analysed with paired (animal) t-tests and considered significant as P<0.05.

Assay [2] relates to peripheral (mesenteric) artery segments. Kind of assay: Vasodilation of isolated precontracted artery segments (wire myograph), mesenteric artery. It is filed as cell-based, rat. As to the method: as §1, §2
(§5) After 15 min equilibration, a stable precontraction tone (50-80% of the KPSS-induced steady state contraction) was induced in arterial segments by PGF2α (3-10 μM).
(§6) Concentration-dependent vasodilatory responses of artery segments were normalized as percentage of precontraction remaining.
(§7) Vasodilation is expressed as percentage of the remaining precontraction tone induced by PGF2α. Vessel wall tension=Force/(vessel wall length), where vessel wall length=2×segment length. Active tension was determined by subtracting the passive tension (resting tension in PSS) from the total tension (during KPSS or PGF2α challenge).
as §3, §4

Assay [3] has as its system cerebral (basilar) artery segments. The experiment in a line: Vasodilation of isolated precontracted artery segments (wire myograph), basilar artery. It is filed as cell-based, rat. As to the method: as §1, §2, §5, §6, §7, §3, §4
Assay [4] concerns hypertension in experimental animals. The following applies: cited from earlier work.
In assay [5] the test system is rats with acute myocardial infarction (permanent LAD occlusion). The experiment in a line: Rat model of acute myocardial infarction (permanent LAD occlusion), myocardial perfusion imaging by SPECT/CT.
Method: Experimental myocardial infarction is induced by LAD ligation in rats. Size of the acute myocardial perfusion defect is determined by myocardial perfusion imaging using SPECT/CT. […] All surviving rats underwent follow-up myocardial perfusion imaging using SPECT/CT 21 days after the infarct to determine the final infarct size.
AMI surgery was conducted using the procedure for permanent LAD occlusion.
The rats were anaesthetized with 4% sevoflurane. Rats were intubated and ventilated (UNO micor-ventilator-O3, Netherlands) and maintained anaesthetized with sevuflorane 2.5% to 4%. Rats were placed on a heated surface during surgery. In the rat's tail vein a 24G intravenous catheter was placed (Vasofix® Safety, Braun, Denmark). Before incision the rats were pain treated subcutaneously with Buprenorphine 0.05 mg/kg. After surgery the rats were paintreated four times the first 24 hours and three times the next 24-72 hours.
After insuring sterile surgical conditions, an incision was made in the skin and a thoracotomy was performed. This was placed at either the third or fourth intercostal space depending on size. The pericardium was identified and opened. After inspection of the heart, the LAD was identified and ligated caudal of its origin with a 5-0 polypropylene suture. The myocardium was visually observed for ischemia. If there was no discoloration of the myocardium, another suture was made until ischemia was confirmed by discoloration of the myocardium. One minute after ligation, the rats were injected intravenously with 99-technetium sestamibi to determine the acute perfusion defect. After injection of sestamibi, suture type vicryl 4-0 was used to close the thoracotomy, muscle layer and skin.
Rats underwent single photon emission computer tomography (SPECT) on the day of the surgery and 21 days post-surgery to determine acute and final perfusion defect size. Imaging was performed on a preclinical SPECT/CT scanner (Mediso Nanoscan, Hungary). The rats were anesthetized with sevuflorane 4% for SPECT-scan to be obtained. On the day of the surgery, the rats were perioperatively injected with 99-technetium Sestamibi (median 106 mBq [99; 116]) as described above. On the 21-days follow-up the rats were anesthetized with sevoflurane 4%. In the rat's tail vein an 24G intravenous catheter was placed (Vasofix® Safety, Braun, Denmark). After the catheter was placed, the rats were injected with 99-tecnetium (median 122 [106; 129]).
In assay [6] the test system is coronary LAD artery segments. The experiment in a line: CGRP-agonist sensibilization: repeated dose-response and artery culture, coronary LAD. Type of assay: cell-based, rat.
From the text: (§8) Artery segments were divided for comparison of the effect of Compound I and CGRP in fresh and cultured artery segments, respectively.
Assay [7] relates to mesenteric artery segments. The experiment in a line: CGRP-agonist sensibilization: repeated dose-response and artery culture, mesenteric artery. Type of assay: cell-based, rat. The following applies: isolated mesenteric artery.
From the text: as §8
The mark [8] stands for this setting: all completers, 21 days after infarct, mean ± SEM.
Setting [9] is: subgroup with acute perfusion defect < 15%, 21 days, mean ± SEM.

T1 sequence (Q16602 23-461): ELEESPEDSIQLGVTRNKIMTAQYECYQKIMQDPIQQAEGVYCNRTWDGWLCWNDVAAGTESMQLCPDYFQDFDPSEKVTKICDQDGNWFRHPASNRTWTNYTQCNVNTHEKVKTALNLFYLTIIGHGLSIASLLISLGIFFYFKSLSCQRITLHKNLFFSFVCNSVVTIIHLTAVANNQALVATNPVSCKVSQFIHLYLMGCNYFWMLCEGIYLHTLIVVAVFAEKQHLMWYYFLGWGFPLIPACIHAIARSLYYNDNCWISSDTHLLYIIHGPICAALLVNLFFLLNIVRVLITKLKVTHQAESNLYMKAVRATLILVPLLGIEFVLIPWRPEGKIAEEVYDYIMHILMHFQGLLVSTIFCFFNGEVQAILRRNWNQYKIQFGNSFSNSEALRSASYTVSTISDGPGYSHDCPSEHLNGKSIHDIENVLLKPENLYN
T1 sequence (O60894 27-148): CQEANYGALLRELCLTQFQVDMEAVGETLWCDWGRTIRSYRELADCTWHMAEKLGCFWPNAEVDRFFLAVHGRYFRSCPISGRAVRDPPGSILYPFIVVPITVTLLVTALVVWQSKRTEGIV

Regarding “N-alpha-[2-(2-{2-[(S)-4-Carboxy-4-(17-carboxyheptadecanoylamino)-butyrylamino]-ethoxy}ethoxy)acetyl](Ser1]alpha-human CGRP peptide [Compound I]”, at CGRP receptor, the “In vitro potency lower than that of CGRP” value is “approximately 10 times”. The “Vasodilation efficacy compared with CGRP (in words)” value in assay [1] (coronary artery) was “comparable efficacy; also recorded: not different”. Further, in assay [1] (coronary artery segments), the “Potency ratio (EC50 CGRP: EC50 Compound 1)” value is around 1 and the “Vasodilatory potency compared with CGRP (in words)” value is “equipotent; also recorded: similar; also recorded: not different”. In assay [2] (mesenteric artery), the “Potency difference between CGRP and Compound I” value is 5-10 fold; the “Potency ratio (EC50 CGRP: EC50 Compound 1)” value is 0.1-0.2; the “Vasodilation efficacy compared with CGRP (in words)” value was “comparable efficacy”; the “Vasodilatory potency compared with CGRP (in words)” value is “lower”. Also, the “Potency in peripheral compared with coronary artery (in words)” value in assay [2] (peripheral (mesenteric) versus coronary artery) is reported as “not lower”. In assay [3] (basilar artery), the “Vasodilation efficacy compared with CGRP (in words)” value is “comparable efficacy” and the “Vasodilatory potency compared with CGRP (in words)” value was “lower”. In assay [3] (cerebral artery), the “Potency difference between CGRP and Compound I” value is reported as 5-10 fold; the “Potency ratio (EC50 CGRP: EC50 Compound 1)” value is reported as 0.1-0.2. The “Effect on hypertension (in words)” value in assay [4] is “reversing hypertension and complications of hypertension”. Further, in assay [5] (setting [8]), the “Perfusion recovery, %” value was 55.1±6.6% and 55.1 ± 6.4%; the “Perfusion recovery, SRS” value came out at 6.5 ± 1 SRS. In assay [5] (rat, in vivo), the “Animals surviving the surgery and the 3 weeks recovery period (survival rate)” value was 75%; the “Effect on survival rate (in words)” value is listed as “tendency (not statistically significant) towards an increased survival rate”; the “Further rats that died during the 21-days follow-up period” value is 14%. In addition, in assay [5] (setting [9]), the “Perfusion recovery in subgroup, %” value stood at 66.2 ± 9.0% and the “Perfusion recovery in subgroup, SRS” value came out at 3.8 ± 0.6 SRS. Also, the “Effect on myocardial perfusion recovery (in words)” value in assay [5] (treatment for 3 successive days after experimental AMI, 3 weeks) is given as “large improvement of myocardial perfusion recovery; also recorded: significant improved recovery of perfusion defect”. Also, the “Effect of repeated cumulative stimulation on potency ratio Compound I/CGRP (in words)” value in assay [6] is reported as “does not change the potency ratio”. In assay [6] (culture 24 h at 37° C. in absence and presence of 10 nM Compound I), the “Effect of artery culture on CGRP-agonist-induced vasodilation (in words)” value is “induce sensibilization”. Besides, the “Effect of repeated cumulative stimulation on potency (in words)” value in assay [6] (second dose-response curve 90-120 minutes after the first) is “shift in potency towards significant sensitization”. The “Potency ratio between Compound I and CGRP after repeated dose-response (in words)” value in assay [7] was “maintained”. The “CGRP-agonist-induced CGRP sensibilization (in words)” value in assay [7] (repeated dose-response and culture) was “no CGRP-agonist-induced CGRP sensibilization”.
Take “N-alpha-[2-(2-{2-[(S)-4-Carboxy-4-(17-carboxyheptadecanoylamino)butyryl-amino]ethoxy}ethoxy)acetyl](Ser1]beta-human CGRP peptide [Compound II]”: the “In vitro potency lower than that of CGRP” value at CGRP receptor is recorded as “approximately 10 times”.

Source of the values: patent US11890324B2, “Compounds for use in inducing myocardial perfusion recovery” (Epoqe Pharma ApS, priority 2018, dated 2024).
